The test system of data set [1] is collagen-induced arthritis in DBA/1j mice. The data set is described as follows: Mouse Collagen-Induced Arthritis. Particulars: 10 mg/kg/day, once daily for 14 days, oral gavage; arthritic index vs control. The class given is in vivo. The method, then: Seven- to eight-week-old male DBA/1j mice were used for all procedures. Animals were housed in groups of 10, and were maintained at 21° C.±2° C. on a 12-hour light/dark cycle with food and water ad libitum. Complete Freund's adjuvant (CFA) was prepared by emulsifying bovine type II collagen at 4 mg/mL with a 4 mg/mL suspension of Mycobacterium tuberculosis H37Ra in Incomplete Freund's Adjuvant (IFA) (0.85 mL paraffin oil and 0.15 mL mannide monooleate) in a 1:1 (v/v) ratio. All mice were immunised subcutaneously with 200 μg of bovine type II collagen in CFA. 21 days later, all mice were immunised subcutaneously with 100 μg of bovine type II collagen in IFA. The mice started to develop signs and symptoms of arthritis following the ‘booster’ immunisation.
For macroscopic assessment of arthritis, the following signs were monitored in each paw of each mouse three times per week and summed to generate the Arthritic Index (A1) (the maximum A1 for one animal is 16): • 0=no visible effects of arthritis. • 1=oedema and/or erythema of 1 digit. • 2=oedema and/or erythema of 2 digits. • 3=oedema and/or erythema of more than 2 digits. • 4=severe arthritis of entire paw and digits.
Animals were sorted into treatment groups with a mean arthritic index of 2.5 and then dosed once daily for 14 days with compound: by oral gavage for test compounds, or by subcutaneous injection at a dose of 10 mg/kg for the positive control, etanercept. After completion of the experiment, the mice were sacrificed.
The data were analysed by generating an average of the arthritic index across each treatment group. The mean arthritic index was then compared to the arthritic index of control (untreated) animals using the following formula to generate a percentage inhibition of disease.

For a further data set, the target named is hERG ion channel (Homo sapiens (Human), UniProt Q12809). Description: hERG Ion Channel binding assay (3H astemizole displacement). Here is the method:
(§1) The activity of the compounds against the hERG ion channel was tested using a binding assay in stably transfected Human Embryonic Kidney cells (hERG-HEK293). hERG-HEK293 cells were cultured in MEM medium (Invitrogen)+10% FBS, glutamine and non-essential amino acids at 37° C. To prepare membranes, cells were homogenised on ice, centrifuged at 650×g for 10 minutes at +4° C., and the resulting supernatant centrifuged at 48000×g for 10 minutes at +4° C. The pellet was resuspended in ice-cold 50 mM Tris-HCl buffer, 5 mM KCl (pH 8.5) and stored frozen in aliquots until use.
(§2) For binding assays, membranes were thawed, re-suspended in assay buffer (10 mM HEPES pH 7.4, 0.1% BSA, 5 mM potassium chloride, 0.8 mM magnesium chloride, 130 mM sodium chloride, 1 mM sodium-EGTA, 10 mM glucose) and incubated with ^3H astemizole (1.5 nM), and with or without test compound at 25° C. for 60 minutes. Binding was determined following filtration of the membranes and washing in Tris-HCl buffer by scintillation counting of ^3H astemizole.
(§3) The degree of binding of compounds to the hERG ion channel (%) was obtained by measuring the binding of ^3H astemizole and its displacement by test compound. A value of 0% indicates no binding and a value of 100% indicates complete displacement of the radiolabelled ligand.
On the technique in general: Block of hERG is tested as a sign of cardiac risk.

Another data set concerns the target hERG (Homo sapiens (Human), UniProt Q12809). The data set is described as above. Particulars: human, membranes of HEK293 cells stably expressing hERG, pH 7.4, probe 3H astemizole (1.5 nM); 30 μM; displacement of 3H astemizole, hERG-HEK293 membranes. Here is the method:
as §1, §2, §3

Data set [2] can be described thus: Aqueous solubility in FaSSIF. The settings on record: for solubility at 16 h: kinetic from dmso stock, pH 6.5, 16 hours, room temperature. The class given is physicochemical. Here is the method:
Aqueous solubility was measured by equilibration of compounds with fasted state simulated intestinal fluid (FaSSIF) and quantified spectrophotometrically.
Preparation of blank FaSSIF: 0.21 g of sodium hydroxide (NaOH) pellets, 1.97 g of dihydrogen sodium phosphate (NaH2PO4.2H2O) and 3.09 g of sodium chloride (NaCl) were dissolved in 400 mL of deionised water. The pH was adjusted to 6.5 using 1 M hydrochloric acid and further deionised water added to a final volume of 500 mL.
Preparation of FaSSIF: 0.056 g of SIF Powder (containing sodium taurocholate and lecithin) (Pharses A G) was dissolved in 25 mL of blank FaSSIF and stirred until the powder was completely dissolved. The solution was allowed to stand for 2 hours during which it became opalescent; it was used within 24 hours. The final solution composition was characterised as follows: • Sodium taurocholate: 3 mM • Lecithin: 0.75 mM • Osmolarity: 270±10 mOsmol • pH: 6.5
The optical density was measured at the end of the incubation period for test compounds and a reference used to determine solubility. In brief, two samples were prepared for each determination: a reference sample consisting of a stock solution of test compound in DMSO diluted in system solution (a phosphate free, low absorption buffer) and propanol; and a test sample (prepared in triplicate) consisting of 0.5 mL FaSSIF spiked with test compound at 0.2 mM. Each sample was incubated at room temperature for 16 hours with constant shaking at 250 rpm. At the end of the incubation period, 0.3 mL of each sample was filtered through a pION filter plate (PION, Woburn MA), diluted 1:1 with propanol and scanned using UV spectrophotometry at Amax ([…]) using a Spectra Max Plus—Version 2.1000 (Molecular Devices, Sunnyvale, CA), with pSOL Explorer solubility determination software (pION, Woburn, MA).
FaSSIF solubility was calculated using the following formula:
[formula] • wherein: • “OD” is the optical density; • “Cr” is the concentration of the reference (33.4 μM); and • “molecular weight” is for the test compound (e.g., 381.44 for ABD735).

Data set [3] relates to Thp1 human monocytic cells. Description: Thp1 Monocyte ATP Production Assay (ATPlite). Type of data set: cell-based. Particulars: Homo sapiens, THP-1, Thp1 cells, 24 hour incubation, mean of 2 independent experiments. Here is the method:
In vitro potency of test compounds was determined by incubation with Thp1 human monocytic cells and subsequent determination of Adenosine TriPhosphate (ATP) levels using firefly luciferase.
ATP is present in all metabolically active cells. When cells lose integrity, their ability to synthesise ATP is rapidly lost. […] See, e.g., Kang et al., 2015; Jiang et al., 2013. Levels of ATP can be monitored using a system based on firefly (Photinus pyralis) luciferase (see, e.g., Auld et al., 2009) using commercially available kits. A system known as ATPlite™ was using to measure effects of the test compounds on cellular viability in vitro. This one-step assay system is an adenosine triphosphate (ATP) monitoring system based on the production of light caused by the reaction of ATP from the cells with added luciferase and D-luciferin, as illustrated in the reaction scheme below:
Thp1 cells were plated at 112500 cells per well in 125 μL RPMI-1640 (no glucose) with 1% FBS in 96-well plates. Test compounds were prepared as 100 mM solutions in DMSO. These stock solutions were diluted in DMSO and then diluted 1000× in culture medium (RPMI) before being added directly to the wells so as to give the desired final compound concentration. After a 24 hour incubation at 37° C./5% CO2, ATPLite™ (Perkin Elmer) was added to each well (1:10 v/v, 10 μL). The plate was then incubated at room temperature for 5 minutes and the emitted light was quantified on Viewlux with a measurement time of 0.3 seconds and binning 4×4.
The average results for each test compound were expressed as a percent (%) of the average control value reflecting cell viability. The average values across the concentrations tested were then plotted and the IC50 for was calculated by fitting the data to a 4-parameter IC50 equation using software from Graf it (Erithacus Software). Each experiment was repeated twice and the data are presented as the mean IC50 from both experiments.
(In general: Cellular ATP, detected with luciferase, serves as a proxy for viable cell number.)

Data set [4] can be described thus: Human Hepatocyte Stability. The class given is in vitro ADME. The settings on record: pooled human hepatocytes, 1 μM, 60 minute incubation; for half-life at 1 μM: read-out: Human t1/2. The method, then: (§4) Metabolic stability of test compounds was measured by determination of the rate of disappearance of the compound when incubated in the presence of human hepatocytes, a primary source of the most important enzymes (cytochrome P450s) involved in drug metabolism. Study of drug stability in the presence of primary hepatocytes is accepted as a valuable model permitting rapid prediction of in vivo drug stability.
(§5) Human hepatocytes were obtained from a commercial source and viability was assessed using a trypan blue solution prior to use. Test compounds (final concentration 1 μM, 0.1 DMSO, 0.9% acetonitrile) or a marker (diclofenac or diltiazem, final assay concentration 1 μM, 0.1% DMSO, 0.9% acetonitrile) were incubated with pooled hepatocytes for a 60 minute period and samples removed at up to 6 time points and analysed by LC-MS/MS for the presence/amount of test compounds.
(§6) Each compound was incubated for 0, 5, 15, 30, 45, or 60 minutes. The reactions were stopped by the addition of methanol containing an internal standard (1 μM Tolbutamide) at the appropriate time points, mixed and placed at −20° C. for 1 hour to quench and allow protein to precipitate. All samples were centrifuged (2500× g, 20 minutes, 4° C.). The aliquots were analysed using LC-MS/MS. Reactions were performed in duplicate at 37° C.
(§7) Data were processed, and the results plotted as In(concentration) vs. time. The elimination rate constant (slope of the regression line, k) was calculated using the following formula, where C(t) is the concentration at time t and C(0) is the starting concentration:
(§8) The half-life (t1/2) was calculated using the following formula: […]
(§9) The intrinsic clearance (Clint) was calculated using the following formula, where [cell] is the hepatocyte concentration in the assay: […]

The subject of a further data set is human hepatocytes. The data set is described as follows: Human Hepatocyte Stability. The class given is in vitro ADME. Particulars: human hepatocytes. The method, then:
as §4, §5, §6, §7, §8, §9

Setting [5] is: 9-point concentration range from 10 μM to 10 nM.

Converted amounts (≈) assume the structure as drawn.

The results in this text go back to US12162836B2, “N-acyl-{4-[(4-aryl-phenyl)sulfonylmethyl]piperidine} compounds and their therapeutic use” (Modern Biosciences Limited, priority 2019, dated 2024).

What is called inhibition is the percentage by which the read-out fell short of the control. As usually defined, the solubility is the concentration that dissolves in the medium under given conditions. Read a high solubility as a readily soluble substance. The term IC50 denotes the concentration at which inhibition is half-maximal. Lower therefore signals greater potency. The hepatocyte CLint is the rate of metabolic loss divided by the concentration.

hERG ion channel, sequence (Q12809 whole entry): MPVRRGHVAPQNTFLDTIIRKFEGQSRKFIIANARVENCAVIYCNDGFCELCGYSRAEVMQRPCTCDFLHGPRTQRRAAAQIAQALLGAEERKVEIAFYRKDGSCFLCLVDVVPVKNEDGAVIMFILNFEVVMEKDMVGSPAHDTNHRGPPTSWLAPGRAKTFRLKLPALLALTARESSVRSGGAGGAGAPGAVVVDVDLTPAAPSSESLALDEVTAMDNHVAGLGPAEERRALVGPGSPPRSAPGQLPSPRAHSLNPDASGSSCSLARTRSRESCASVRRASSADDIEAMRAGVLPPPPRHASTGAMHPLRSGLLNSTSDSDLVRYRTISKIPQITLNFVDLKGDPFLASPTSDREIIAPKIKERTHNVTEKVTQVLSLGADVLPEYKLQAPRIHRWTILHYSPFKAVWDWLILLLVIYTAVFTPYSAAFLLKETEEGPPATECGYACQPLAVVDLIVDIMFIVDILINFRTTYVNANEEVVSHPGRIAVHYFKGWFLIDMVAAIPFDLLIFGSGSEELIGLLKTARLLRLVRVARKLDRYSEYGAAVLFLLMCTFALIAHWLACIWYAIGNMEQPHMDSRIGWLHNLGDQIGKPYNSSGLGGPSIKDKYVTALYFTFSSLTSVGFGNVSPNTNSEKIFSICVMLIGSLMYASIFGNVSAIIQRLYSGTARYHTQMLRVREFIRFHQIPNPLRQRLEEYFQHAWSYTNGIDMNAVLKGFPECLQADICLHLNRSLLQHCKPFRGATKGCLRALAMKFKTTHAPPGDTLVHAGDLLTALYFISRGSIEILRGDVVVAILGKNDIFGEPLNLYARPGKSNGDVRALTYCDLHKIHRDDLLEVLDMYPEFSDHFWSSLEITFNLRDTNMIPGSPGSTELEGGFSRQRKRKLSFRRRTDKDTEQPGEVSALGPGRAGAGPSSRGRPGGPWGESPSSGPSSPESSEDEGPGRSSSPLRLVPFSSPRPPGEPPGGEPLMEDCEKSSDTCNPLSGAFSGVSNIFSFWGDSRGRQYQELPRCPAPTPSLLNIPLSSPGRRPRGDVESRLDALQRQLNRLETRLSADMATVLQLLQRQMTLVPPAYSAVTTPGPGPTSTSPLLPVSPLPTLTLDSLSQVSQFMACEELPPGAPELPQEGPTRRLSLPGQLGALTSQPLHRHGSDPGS
hERG, sequence (Q12809 whole entry): as above

With `C[C@]1(O)CC[C@@H](NS(=O)(=O)c2ccc(-c3ccc(Cl)cc3C#N)cc2)CC1` [HMC-C-01-B], the “% inhibition of disease” value in data set [1] was 26%.

`CC(=O)N1CCC(C(C)S(=O)(=O)c2ccc(-c3ccc(F)cc3F)cc2)CC1` (centres unmarked) [NASMP-17, 1-(4-(1-((2′,4′-Difluoro-[1,1′-biphenyl]-4-yl)sulfonyl)ethyl)piperidin-1-yl)ethan-1-one]: on hERG ion channel, the “cardiac safety profile, hERG (in words)” value was “particularly positive profile”. Moreover, the inhibition at 60 min, 30 µM on hERG amounted to 14%. Besides, in data set [2], the “solubility (in words)” value was “particularly good solubility” and the solubility at 16 h was found to be 0.077 mg/mL (≈ 189 µM). Also, in data set [3] (setting [5]), half-maximal inhibition (IC50) was put at 4.6 µM.

In the case of `CC(=O)N1CCC(C(C)(C)S(=O)(=O)c2ccc(-c3ccc(F)cc3F)cc2)CC1` [NASMP-18, 1-(4-(2-((2′,4′-Difluoro-[1,1′-biphenyl]-4-yl)sulfonyl)propan-2-yl)piperidin-1-yl)ethan-1-one], in data set [4], the hepatocyte CLint at 1 μM was found to be 3.8 µL/min/1e6 cells and the half-life at 1 μM worked out at 5.87 h. In the data set on human hepatocytes, the “metabolic stability (in words)” value was “exceptionally good stability”. Further, the “cardiac safety profile, hERG (in words)” value on hERG ion channel is on record as “particularly positive profile”. The same compound registered an inhibition at 60 min, 30 µM at hERG of 14%. This compound also displayed a solubility at 16 h in data set [2] of 0.039 mg/mL (≈ 92.5 µM). In data set [3] (8-point concentration range from 100 μM to 100 nM), this compound came in with an IC50 of 28.5 µM.

Take `CC(=O)N1CCC(C2(S(=O)(=O)c3ccc(-c4ccc(F)cc4F)cc3)CC2)CC1` [NASMP-21, 1-(4-(1-((2′,4′-Difluoro-[1,1′-biphenyl]-4-yl)sulfonyl)cyclopropyl)piperidin-1-yl)ethan-1-one]: in data set [4], the hepatocyte CLint at 1 μM was determined as 13.4 µL/min/1e6 cells and the half-life at 1 μM stood at 1.74 h. Further, the “cardiac safety profile, hERG (in words)” value on hERG ion channel is “particularly positive profile”. At hERG, the inhibition at 60 min, 30 µM came out at 1%. Also, in data set [2], the “solubility (in words)” value is recorded as “particularly good solubility” and the solubility at 16 h is 0.071 mg/mL (≈ 169 µM). In data set [3] (setting [5]), this compound had an IC50 of 6.1 µM.
